Reference: ChEMBL document CHEMBL1130565, “Development of the new potent non-peptide gpIIb/IIIa antagonist NSL-95301 by utilizing combinatorial technique” (Bioorg Med Chem Lett, 1997)

Species on record: Homo sapiens
Test: In vitro collagen induced platelet aggregation inhibitory activity using human platelet rich plasma anti-coagulated with 0.38% trisodium citrate
Assay type: functional
Details: not given

IC50 [µM] | Structure (SMILES)
31 | CC(C)(C(=O)N1CCC(CC(=O)O)CC1)C(NC(=O)c1ccc(C(=N)N)cc1)c1ccccc1 (single isomer, unassigned; (-))
0.19 | CC(C)(C(=O)N1CCC(CC(=O)O)CC1)C(NC(=O)c1ccc(C(=N)N)cc1)c1ccccc1 (stereo in doubt; 18)
0.092 | CC(C)(C(=O)N1CCC(CC(=O)O)CC1)C(NC(=O)c1ccc(C(=N)N)cc1)c1ccccc1 (single isomer, unassigned; (+))

Same assay, conditions: Homo sapiens, Plasma

IC50 [µM] | Structure (SMILES)
1.9 | N=C(N)c1ccc(C(=O)N[C@@H](CC(=O)N2CCC(CC(=O)O)CC2)C(=O)OC2CCCCC2)cc1
9.2 | CC(C)[C@@H](CC(=O)N1CCC(CC(=O)O)CC1)NC(=O)c1ccc(C(=N)N)cc1
82 | CC(C)C(C(=O)N1CCC(CC(=O)O)CC1)C(NC(=O)c1ccc(C(=N)N)cc1)c1ccccc1 (stereo not drawn)
30 | C[C@H](NC(=O)c1ccc(C(=N)N)cc1)C(=O)N1CCC(CC(=O)O)CC1
18 | N=C(N)c1ccc(C(=O)NCCC(=O)N2CCC(OCC(=O)O)CC2)cc1
0.94 | N=C(N)c1ccc(C(=O)NCC(Cc2ccc(O)cc2)C(=O)N2CCC(CC(=O)O)CC2)cc1 (stereo not drawn)
4.1 | N=C(N)c1ccc(C(=O)NCC(Cc2ccccc2)C(=O)N2CCC(CC(=O)O)CC2)cc1 (stereo not drawn)
25 | CC(C)C(CNC(=O)c1ccc(C(=N)N)cc1)C(=O)N1CCC(CC(=O)O)CC1 (stereo not drawn)
33 | N=C(N)c1ccc(C(=O)NCCC(=O)N2CCC(C(=O)O)CC2)cc1
> 1000 | C[C@H](NC(=O)c1ccc(NC(=N)N)cc1)C(=O)N1CCC(C(=O)O)CC1
0.59 | CC(CNC(=O)c1ccc(C(=N)N)cc1)C(=O)N1CCC(CC(=O)O)CC1 (stereo not drawn)
4.1 | N=C(N)c1ccc(C(=O)N[C@@H](CC(=O)N2CCC(CC(=O)O)CC2)C(=O)Oc2ccccc2)cc1
6.5 | CN(CCC(=O)N1CCC(CC(=O)O)CC1)C(=O)c1ccc(C(=N)N)cc1
7.5 | CN(CC(=O)N1CCC(CC(=O)O)CC1)C(=O)c1ccc(C(=N)N)cc1
> 1000 | N=C(N)NCc1ccc(C(=O)NCCC(=O)N2CCC(C(=O)O)CC2)cc1
5.2 | N=C(N)c1ccc(C(=O)N[C@H](CC(=O)N2CCC(CC(=O)O)CC2)c2ccccc2)cc1
16 | CCC(C(=O)N1CCC(CC(=O)O)CC1)C(NC(=O)c1ccc(C(=N)N)cc1)c1ccccc1 (stereo not drawn)
5 | C[C@@H](CC(=O)N1CCC(CC(=O)O)CC1)NC(=O)c1ccc(C(=N)N)cc1
710 | C[C@H](NC(=O)c1ccc(CN=C(N)N)cc1)C(=O)N1CCC(C(=O)O)CC1
3.8 | CCCCC(CNC(=O)c1ccc(C(=N)N)cc1)C(=O)N1CCC(CC(=O)O)CC1 (stereo not drawn)
53 | CN(CC(=O)N1CCC(C(=O)O)CC1)C(=O)c1ccc(CN=C(N)N)cc1
25 | N=C(N)c1ccc(C(=O)N2CCCC(C(=O)N3CCC(CC(=O)O)CC3)C2)cc1 (stereo not drawn)
110 | C[C@H](NC(=O)c1ccc(C(=N)N)cc1)C(=O)N1CCC(C(=O)O)CC1
750 | N=C(N)Nc1ccc(C(=O)NCCC(=O)N2CCC(C(=O)O)CC2)cc1
> 1000 | CN(CC(=O)N1CCC(CC(=O)O)CC1)C(=O)c1ccc(CN=C(N)N)cc1
0.57 | CC(C)(CNC(=O)c1ccc(C(=N)N)cc1)C(=O)N1CCC(CC(=O)O)CC1
4.3 | N=C(N)c1ccc(C(=O)N2CCCC2CC(=O)N2CCC(CC(=O)O)CC2)cc1 (stereo not drawn)
750 | CN(CC(=O)N1CCC(CC(=O)O)CC1)C(=O)c1ccc(NC(=N)N)cc1
330 | CN(CC(=O)N1CCC(C(=O)O)CC1)C(=O)c1ccc(C(=N)N)cc1
100 | CN(CC(=O)N1CCC(C(=O)O)CC1)C(=O)c1ccc(NC(=N)N)cc1
